From a melting point compilation (Tetko et al.; mined from patent text by program, amines drawn as free bases though some values may be those of a salt) come the findings set out here.

A value given as a limit tells only on which side of the number the result lay.

One may read the melting point as the temperature, or range, at which the solid turns liquid.

For the compound `COC(=O)COc1ccc(C(=O)Nc2ccccc2Sc2ccccc2-c2nnn[nH]2)cc1`, the melting point is 204 to 205 °C.
With `COC(=O)C#CC(=O)c1ccc(Cl)c(Cl)c1` the figure was 58 to 59 °C; with `COc1cc(C2CCCCC2)ccc1CCCC(=O)O`, 104 to 105 °C.
For `Cc1ccc2onc(O)c2c1` the value was 95 to 97 °C; for `Cc1nc2n(CCN3CCOCC3)c3ccccc3n2c1C(=O)c1ccc(Cl)cc1`, 147 to 148 °C.
For `CCC1(CC)c2cc(CBr)c(CBr)cc2C(CC)(CC)N1Cc1ccccc1` the value was 164 to 166 °C; for `CCCCCCCCCCCCCCCCCCOc1cc(N(CC(=O)OC)CC(=O)OC)cc([N+](=O)[O-])c1`, 68 to 74 °C; for `CC(=O)N[C@@H](C)COC1CCN(c2nc3ccc(OCC4CC4)cc3s2)CC1`, 121 to 122 °C.
`O=NN(CC(=O)O)C([PH](=O)Oc1ccccc1)[PH](=O)Oc1ccccc1` (configuration not stated): the melting point is 40 to 44 °C.
In turn, `CC(C)c1nnc2c3ccc(Cl)cc3c(-c3ccccc3)nn12` displayed a melting point of 214 to 216 °C.
In turn, `C/C(=C\c1cccc2c1NCCNC2=O)CCCC(=O)O` registered a melting point of 257 to 259 °C.
Regarding `COc1ccc(C[C@@H](C(=O)O)[C@@H](O)c2ccc(F)cc2)cc1` (racemic), the melting point lay in the range of 96 to 98 °C.
With `COC(=O)C(C)=Cc1ccc(OCCCNc2ccc(Cl)cc2)cc1` the figure was 62 to 64 °C; with `CCOc1ccc(C(=O)NCc2ccc3c(c2)CN(C2CCC(=O)NC2=O)C3=O)cc1` (configuration not stated), 269 to 271 °C.
For `O=c1[nH]cnc2ccc(-c3cccnc3)cc12` the value was 240 to 246 °C; for `CS(=O)(=O)Nc1ccc(N2CCN(c3ccncc3)CC2)cc1`, 230 to 232 °C; for `CCS(=O)(=O)c1ccc2c(c1)nc(CC(C)(C)C)n2CC1(O)CCCC1`, 172 °C.
For `CCCNC(=S)NC1=Nc2ccccc2CS1` the value was 180 to 184 °C; for `N#CN=C(N)c1cc2c(Oc3ccc(Cl)cc3)cncc2s1`, 265 to 268 °C; for `Nc1ccc(Cl)cc1NC1CCN(Cc2ccccc2)CC1`, 108 °C.
The compound `CC(C)(C)OC(=O)N1CCN(c2ccc([N+](=O)[O-])cc2C#N)CC1` had a melting point of 141 to 142 °C.
For `c1ccc(CN2CCC3(Cc4ccccc4O3)C2)cc1` (configuration not stated) the value was 43 to 45 °C; for `COc1c2c(c(OC)c(OC)c1OC)CCC(CCO)CC2`, 64 to 66 °C; for `O=C(O)CCc1cc(OCc2ccccc2)nn1Cc1ccc(Cl)cc1Cl`, 98 to 101 °C.
For `O=c1c2cc(F)c(N3CCCC3)cc2n(-c2ccc(F)cc2)c(=O)n1O` the value was 183 to 185 °C; for `CCCCOCCCCCCCCCCC(=O)O`, 29 to 30.5 °C; for `CC(=O)NC[C@H]1CN(c2ccc(C3=CCCN(C(=O)CO)C3)c(F)c2)C(=O)O1`, 188 to 190 °C.
For `COc1ccc(S(=O)(=O)NCCCO)c(OC)c1OC` the value was 95 to 97 °C; for `Sc1ccc2ccncc2c1Cl`, 118 to 122 °C; for `CCOC(=O)C(C)CSCC(NC(=O)CCC(N)C(=O)O)C(=O)NCC(=O)O` (configuration not stated), 193 to 194 °C.
In turn, `CCCCCOc1cc2c(cc1/C=C/C=C/C(C)=C/C(=O)O)C(C)(C)CCC2(C)C` yielded a melting point of 162 to 163 °C.
In turn, `O=C(O)COc1ccc(SCc2ccc(OCc3ccc(C(F)(F)F)cc3)cc2)c2c1CCC2` gave a melting point of 145 °C.
For the compound `O=S(=O)(c1ccc(F)cc1)N1CCCC1c1cccs1` (racemic), the melting point was found to be 97 °C.
For the compound `N#CCc1c[nH]c2ccc(CS(N)(=O)=O)cc12`, the melting point was 184 to 185 °C.
For `Cc1ccc2c(=O)cc(C#N)oc2c1` the value was 155 to 156 °C.
With `CC(C)(C)C(=O)Oc1ccc(CCNC(=O)c2cccnc2)cc1` the figure was 80 to 82 °C; with `c1ccc2c(c1)CCC(n1ccnc1)C2` (configuration not stated), 93 to 95 °C; with `COc1ccc([N+](=O)[O-])c(CBr)c1`, 64 to 65 °C.
`O=C1CCN(CCc2ccccc2)CC1C(c1ccccc1)c1ccccc1` (configuration not stated): the melting point fell in the range of 73 to 76 °C.
With `NC(=O)c1[nH]c2ccc(Cl)cc2c1S(=O)(=O)c1cccc(Cl)c1` the figure was 272 to 273 °C; with `NS(=O)(=O)c1cnc(-c2cn(-c3nc(-c4ccc(Cl)cc4)cc(C(F)(F)F)n3)cn2)s1`, 263 °C; with `CC(CCCC(=O)O)NC(=O)C(C)S` (configuration not stated), 78 to 79 °C.
`OCc1cc2cc(Br)ccc2[nH]1` yielded a melting point of 111 to 112 °C.
For `O=C(CCCNc1c(C(=O)O)[nH]c2cc(Cl)cc(Cl)c12)c1ccccc1` the value was 254 to 256 °C.
`CSCCn1c(C)nc2c(N)nc3ccccc3c21`: the melting point is 193 to 195 °C.
For `Clc1ccc(Br)c2nc(SCc3ccccc3)nn12` the value was 122 to 124 °C; for `CCCNC(Nc1cc(C(F)(F)F)cc(C(F)(F)F)c1)=C(C#N)S(=O)(=O)c1ccc(Cl)cc1`, 196 to 198 °C.
The compound `COC(=O)C1Cc2c([nH]c3ccccc23)C(c2c(Cl)cccc2Cl)N1` (configuration not stated) displayed a melting point of 102 to 105 °C.
For `CC(=O)NC[C@H]1CN(c2cccc(F)c2)C(=O)O1` the value was 140 °C; for `O=C(C=Cc1cccnc1)C=Cc1cccnc1`, 148 to 149 °C; for `CCCC1=C(C(=O)OCC)C(c2cccc(F)c2C)c2c[nH]nc2N1` (configuration not stated), 159 to 162 °C.
With `COC(CNC(=O)N(N=Cc1ccccc1)c1cc(Cl)c(C(C#N)c2ccc(Cl)cc2)c(Cl)c1)OC` (configuration not stated) the figure was 190 to 191 °C.
For `NC(=O)C1CCN(Cc2cnc3cc(NC(=O)c4ccc(-c5ccc(Cl)cc5)cc4)ccc3c2)CC1` the value was 260 °C; for `CCOC(=O)c1cnn(C)c1C(=O)Nc1ccn2nc(N(C)CC)nc2c1`, 167 °C.
As to `COc1ccc(-c2ccc(NC(=O)C=Cc3ccc(CN4CCCC4)cc3)cc2)cc1`, the melting point fell in the range of 199 to 200 °C.
On to `O=C(C=Cc1ccco1)NCCCCCC(=O)NO`, for which the melting point was 151 to 152 °C.
With `CC(C)=NOCCCn1cnc2c(N)nc3cccnc3c21` the figure was 120 to 121 °C.
Turning to `COC(=O)NNC(=O)C=Cc1ccccc1`, the melting point turned out to be 165 °C.
With `Cc1noc(NS(=O)(=O)c2ccccc2-c2ccccn2)c1C` the figure was 136 to 137 °C; with `CC(C)S(=O)(=O)c1cnc2c(c1)nc(CC(C)(C)C)n2CC1(O)CCOCC1`, 179 °C; with `CCCCCCCCCCCCCCCC(=O)Oc1ccc(C(O)C(C)N2CCC(Cc3ccccc3)CC2)cc1` (configuration not stated), 75 to 77 °C.
For `CCOC(=O)c1c(Cl)c2cscc2[nH]c1=O` the value was 157 °C; for `COc1ccc(-c2ocnc2-c2cc(OC)c(OC(F)(F)F)c(OC)c2)cc1N`, 168 to 170 °C.
Compound `C(=Nc1ncc[nH]1)c1ccccc1` came in with a melting point of 122 °C.
With `Cc1cccc(NC(=O)NCC(=O)N(CC(=O)NCC2CC2)c2ccccc2)c1` the figure was 168 °C.
`CCOc1nc(NCc2ccco2)nc(Nc2ccc3nc(C)[nH]c3c2)n1` came in with a melting point of 150 to 152 °C.
With `O=C(C=C(O)c1cccs1)C1CCN(Cc2ccccc2)CC1` the figure was 80 to 83 °C; with `CN(SN1CCOCC1)C(=O)ON=C1SCC(=O)NC1(C)C`, 180 to 182 °C; with `CS(=O)CCC(=N)NS(N)(=O)=O` (configuration not stated), 141 to 144 °C.
Compound `Cc1cc(Br)cnc1CCCCNc1ncc(Cc2ccc3c(c2)OCO3)c(=O)[nH]1` displayed a melting point of 145 to 146 °C.
In turn, `CS(=O)(=O)c1ccc(-c2cc(C(F)F)cn2-c2ccc(F)cc2)cc1` returned a melting point of 98 to 100 °C.
Compound `CCCc1nc(C(C)(C)O)c(C(=O)OCc2oc(=O)oc2C)n1Cc1ccc(-c2ccccc2C(=O)O)cc1` displayed a melting point of 90 to 93 °C.
With `N#Cc1nn(-c2c(Cl)cc(C(F)(F)F)cc2Cl)c(C(=O)C(F)F)c1Cl` the figure was 124 to 125 °C; with `O=C1CNCCN1c1cccc([N+](=O)[O-])c1`, 137 to 139 °C.
With `CCOC1c2ccccc2-c2nccnc21` (configuration not stated) the figure was above 300 °C; with `Cc1cccc(Oc2ccc3ccc(N)nc3n2)c1`, 100 °C.
With `CC(C)(C)c1cc(-c2nn(Cc3cccs3)c3ncccc23)cc(C(C)(C)C)c1O` the figure was 138 to 141 °C.
With `O=C(CCCC1(c2ccccc2)CC(O)=C(SCc2ccccc2)C(=O)O1)NCc1ccccc1` (configuration not stated), the melting point lay within 48 to 52 °C.
In turn, `Nc1sc2c(c1C(=O)c1ccccc1)CCSC2` gave a melting point of 92 to 95 °C.
For `CCOC(=O)C=C(C)C=CC=C(C)C=Cc1c(C)cc(OC)c(OC)c1C` the value was 203 to 204 °C; for `COc1ccc(Nc2nc(Cl)nc(OCC3CCCCC3)n2)cc1Cl`, 114 °C.
With `Cc1ccc(C)c(SCCCCCCCC(=O)O)c1` the figure was 60 to 63 °C.
For `COC(=O)c1cccc(-c2cccc([N+](=O)[O-])c2)c1` the value was 88 to 89 °C; for `CCOc1cccc2c1OC(C(F)(F)F)C(C(=O)O)=C2` (configuration not stated), 159 to 161 °C.
Regarding `CC(C)(C)OC(=O)Nc1cc(N2CCOC2=O)c(-c2ccc(F)cc2)cc1[N+](=O)[O-]`, the melting point came to 201 °C.
For `c1ccc(-c2cn3cccnc3n2)cc1` the value was 200 to 202 °C.
For `CCCCOc1ccc(C(=O)NCCC(=O)O)cc1` the value was 144 to 146 °C; for `CS(=O)(=O)c1ccc(-c2cnn(CC(F)(F)F)c(=O)c2Oc2cc(C(F)(F)F)ccc2F)cc1`, 133 to 135 °C.
With `CC(C)(C)n1[nH]c(Cc2ccncc2)c2c(=O)nc(-c3ccncc3)nc1-2` the figure was 233 to 235 °C.
`O=C(O)Cc1ccc(OCCCc2cc(-c3ccc(C(F)(F)F)cc3)no2)cc1` showed a melting point of 127 to 128 °C.
With `N#Cc1ccc2c(c1)c(C1CCC3(CC1)OCCO3)cn2Cc1ccccc1` the figure was 129 to 130 °C.
For `Nc1nc(N)nc(-c2ccc(C#Cc3ccccc3)cc2)n1` the value was 248 to 249 °C.
